From US20240270762A1, “PENICILLIN-BINDING PROTEIN INHIBITORS” (priority 2021, published 2024)
Converted amounts (≈) assume the structure as drawn.

Legend:
[1] = target: T1, PBP3 from Escherichia coli (K-12) (Escherichia coli, UniProt P0AD68); assay: Bocillin-FL fluorescence polarization competition binding, E. coli PBP3
T1 construct: made in house
In short: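 Purified PBP was preincubated with inhibitor (E. coli PBP3 1.5 μM, 30 min; P. aeruginosa PBP3 0.75 μM, A. baumannii PBP3 0.2 μM and PBP1a 1 μM, 15 min), then Bocillin-FL (0.1 μM; 0.05 μM for PBP1a) added and FP read up to 60 min. EC50 = 50% loss of bound probe.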

E. coli AG100 = assay: microbe, parasite or virus in culture; type: cell-based; details: Escherichia coli, AG100, read-out: MIC E. coli AG100
E. coli D22 = assay: microbe, parasite or virus in culture; type: cell-based; details: Escherichia coli, D22, read-out: MIC E. coli D22
E. coli AG100A = assay: Broth microdilution MIC in CAMHB; type: cell-based; details: Escherichia coli, read-out: MIC E. coli AG100A
K. pneumoniae 848844 = assay: microbe, parasite or virus in culture; type: cell-based; details: Klebsiella pneumoniae, 848844, read-out: MIC K. pneumoniae 848844
K. pneumoniae SI-117 = assay: microbe, parasite or virus in culture; type: cell-based; details: Klebsiella pneumoniae, SI117, read-out: MIC K. pneumoniae SI-117
A. baumannii ATCC 19606 = assay: microbe, parasite or virus in culture; type: cell-based; details: Acinetobacter baumannii, ATCC19606, read-out: MIC, A. baumannii ATCC 19606
P. aeruginosa ATCC 35151 = assay: microbe, parasite or virus in culture; type: cell-based; details: Pseudomonas aeruginosa, ATCC35151, read-out: MIC P. aeruginosa ATCC 35151
[2] = system: P. aeruginosa (ΔmexAB-oprM); assay: Broth microdilution MIC in CAMHB; type: cell-based; details: Pseudomonas aeruginosa; read-out: MIC P. aeruginosa ΔmexAB-oprM
[3] = system: N. gonorrhoeae ATCC 49226; assay: Liquid broth MIC in Fastidious broth; details: Neisseria gonorrhoeae, ATCC49226, read-out: Minimum Inhibitory Concentration (MIC), N. gonorrhoeae ATCC 49226
N. gonorrhoeae FA1090 = assay: Liquid broth MIC in Fastidious broth; details: Neisseria gonorrhoeae, FA1090, read-out: Minimum Inhibitory Concentration (MIC), N. gonorrhoeae FA 1090
N. gonorrhoeae WHO G = assay: Liquid broth MIC in Fastidious broth; details: Neisseria gonorrhoeae, read-out: Minimum Inhibitory Concentration (MIC), N. gonorrhoeae WHO G
N. gonorrhoeae WHO L = assay: Liquid broth MIC in Fastidious broth; details: Neisseria gonorrhoeae, read-out: Minimum Inhibitory Concentration (MIC), N. gonorrhoeae WHO L
N. gonorrhoeae WHO M = assay: Liquid broth MIC in Fastidious broth; details: Neisseria gonorrhoeae, read-out: Minimum Inhibitory Concentration (MIC), N. gonorrhoeae WHO M
N. gonorrhoeae WHO X = assay: Liquid broth MIC in Fastidious broth; details: Neisseria gonorrhoeae, read-out: Minimum Inhibitory Concentration (MIC), N. gonorrhoeae WHO X
N. gonorrhoeae CDC-0197 = assay: Liquid broth MIC in Fastidious broth; details: Neisseria gonorrhoeae, CDC0197, read-out: Minimum Inhibitory Concentration (MIC), N. gonorrhoeae CDC-0197

T1 sequence (P0AD68 1-577): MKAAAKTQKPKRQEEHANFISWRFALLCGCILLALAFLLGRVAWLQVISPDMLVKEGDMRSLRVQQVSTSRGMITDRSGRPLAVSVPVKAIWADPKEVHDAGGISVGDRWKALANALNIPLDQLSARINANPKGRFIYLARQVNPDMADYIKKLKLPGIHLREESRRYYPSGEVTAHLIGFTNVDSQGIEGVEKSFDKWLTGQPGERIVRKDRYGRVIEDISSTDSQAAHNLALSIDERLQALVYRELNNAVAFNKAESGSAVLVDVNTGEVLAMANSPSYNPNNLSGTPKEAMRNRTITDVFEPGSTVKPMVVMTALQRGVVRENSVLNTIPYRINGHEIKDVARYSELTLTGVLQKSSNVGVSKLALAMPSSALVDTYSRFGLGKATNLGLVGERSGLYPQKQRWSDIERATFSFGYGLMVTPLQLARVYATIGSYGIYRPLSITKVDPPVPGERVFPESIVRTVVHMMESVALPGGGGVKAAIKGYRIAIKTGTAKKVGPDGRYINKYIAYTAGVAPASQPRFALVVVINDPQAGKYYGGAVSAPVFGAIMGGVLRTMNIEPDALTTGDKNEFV

SMILES	EC50 [1]	MIC (E. coli AG100)	MIC (E. coli D22)	MIC (E. coli AG100A)	MIC (K. pneumoniae 848844)	MIC (K. pneumoniae SI-117)	MIC (A. baumannii ATCC 19606)	MIC (P. aeruginosa ATCC 35151)	MIC [2]	MIC [3]	MIC (N. gonorrhoeae FA1090)	MIC (N. gonorrhoeae WHO G)	MIC (N. gonorrhoeae WHO L)	MIC (N. gonorrhoeae WHO M)	MIC (N. gonorrhoeae WHO X)	MIC (N. gonorrhoeae CDC-0197)
O=C(O)c1cccc2c1OB(O)[C@@H](NC(=O)C(NC(=O)C1CC1)c1ccc(P(=O)(O)O)cc1)C2 (stereo partly drawn) [Example 30, (3R)-3-(2-(cyclopropanecarboxamido)-2-(4-phosphonophenyl)acetamido)-2-hydroxy-3,4-dihydro-2H-benzo[e][1,2]oxaborinine-8-carboxylic acid]	50 to 250 µM	> 128 µg/mL	8 to 16 µg/mL (≈ 16.4 to 32.8 µM)	> 128 µg/mL	> 128 µg/mL	> 128 µg/mL	> 128 µg/mL	8 to 16 µg/mL (≈ 16.4 to 32.8 µM)	> 128 µg/mL	16 to 32 µg/mL (≈ 32.8 to 65.5 µM)	4 to 8 µg/mL (≈ 8.19 to 16.4 µM)	4 to 8 µg/mL (≈ 8.19 to 16.4 µM)	16 to 32 µg/mL (≈ 32.8 to 65.5 µM)	4 to 8 µg/mL (≈ 8.19 to 16.4 µM)	16 to 32 µg/mL (≈ 32.8 to 65.5 µM)	16 to 32 µg/mL (≈ 32.8 to 65.5 µM)
O=C(O)c1cccc2c1OB(O)[C@@H](NC(=O)C(NC(=O)C1CCCCC1)c1ccc(P(=O)(O)O)cc1)C2 (stereo partly drawn) [Example 31, (3R)-3-(2-(cyclohexanecarboxamido)-2-(4-phosphonophenyl)acetamido)-2-hydroxy-3,4-dihydro-2H-benzo[e][1,2]oxaborinine-8-carboxylic acid]	50 to 250 µM	> 128 µg/mL	32 to 64 µg/mL (≈ 60.3 to 121 µM)	> 128 µg/mL	> 128 µg/mL	> 128 µg/mL	> 128 µg/mL	2 to 4 µg/mL (≈ 3.77 to 7.54 µM)	> 128 µg/mL	16 to 32 µg/mL (≈ 30.2 to 60.3 µM)	4 to 8 µg/mL (≈ 7.54 to 15.1 µM)	16 to 32 µg/mL (≈ 30.2 to 60.3 µM)	16 to 32 µg/mL (≈ 30.2 to 60.3 µM)	4 to 8 µg/mL (≈ 7.54 to 15.1 µM)	16 to 32 µg/mL (≈ 30.2 to 60.3 µM)	16 to 32 µg/mL (≈ 30.2 to 60.3 µM)
O=C(NC(C(=O)N[C@H]1Cc2cccc(C(=O)O)c2OB1O)c1ccc(P(=O)(O)O)cc1)c1ccccn1 (stereo partly drawn) [Example 32, (3R)-2-hydroxy-3-(2-(4-phosphonophenyl)-2-(picolinamido)acetamido)-3,4-dihydro-2H-benzo[e][1,2]oxaborinine-8-carboxylic acid]	10 to 50 µM	> 128 µg/mL	8 to 16 µg/mL (≈ 15.2 to 30.5 µM)	32 to 64 µg/mL (≈ 60.9 to 122 µM)	> 128 µg/mL	> 128 µg/mL	> 128 µg/mL	2 to 4 µg/mL (≈ 3.81 to 7.62 µM)	32 to 64 µg/mL (≈ 60.9 to 122 µM)	1 to 2 µg/mL (≈ 1.9 to 3.81 µM)	< 1 µg/mL	< 1 µg/mL	16 to 32 µg/mL (≈ 30.5 to 60.9 µM)	< 1 µg/mL	16 to 32 µg/mL (≈ 30.5 to 60.9 µM)	1 to 2 µg/mL (≈ 1.9 to 3.81 µM)
CC(=O)N1CCC[C@@H]1C(=O)N[C@H](C(=O)N[C@H]1Cc2cccc(C(=O)O)c2OB1O)c1ccc(P(=O)(O)O)cc1 [Example 33, (3R)-3-(2-((R)-1-acetylpyrrolidine-2-carboxamido)-2-(4-phosphonophenyl)acetamido)-2-hydroxy-3,4-dihydro-2H-benzo[e][1,2]oxaborinine-8-carboxylic acid]	50 to 250 µM	> 128 µg/mL	32 to 64 µg/mL (≈ 57.2 to 114 µM)	> 128 µg/mL	> 128 µg/mL	> 128 µg/mL	> 128 µg/mL	8 to 16 µg/mL (≈ 14.3 to 28.6 µM)	> 128 µg/mL	16 to 32 µg/mL (≈ 28.6 to 57.2 µM)	4 to 8 µg/mL (≈ 7.15 to 14.3 µM)	16 to 32 µg/mL (≈ 28.6 to 57.2 µM)	16 to 32 µg/mL (≈ 28.6 to 57.2 µM)	4 to 8 µg/mL (≈ 7.15 to 14.3 µM)	16 to 32 µg/mL (≈ 28.6 to 57.2 µM)	16 to 32 µg/mL (≈ 28.6 to 57.2 µM)
CS(=O)(=O)N1CCC[C@@H]1C(=O)N[C@H](C(=O)N[C@H]1Cc2cccc(C(=O)O)c2OB1O)c1ccc(P(=O)(O)O)cc1 [Example 34, (R)-2-hydroxy-3-((S)-2-((R)-1-(methylsulfonyl)pyrrolidine-2-carboxamido)-2-(4-phosphonophenyl)acetamido)-3,4-dihydro-2H-benzo[e][1,2]oxaborinine-8-carboxylic acid]	50 to 250 µM	> 128 µg/mL	32 to 64 µg/mL (≈ 53.8 to 108 µM)	> 128 µg/mL	> 128 µg/mL	> 128 µg/mL	> 128 µg/mL	8 to 16 µg/mL (≈ 13.4 to 26.9 µM)	> 128 µg/mL	16 to 32 µg/mL (≈ 26.9 to 53.8 µM)	4 to 8 µg/mL (≈ 6.72 to 13.4 µM)	4 to 8 µg/mL (≈ 6.72 to 13.4 µM)	16 to 32 µg/mL (≈ 26.9 to 53.8 µM)	4 to 8 µg/mL (≈ 6.72 to 13.4 µM)	16 to 32 µg/mL (≈ 26.9 to 53.8 µM)	16 to 32 µg/mL (≈ 26.9 to 53.8 µM)
